Molecular target: P. falciparum apicoplast DNA polymerase (Pf-apPOL) (Plasmodium falciparum, UniProt Q8ILY1)
Test: Fluorescence-based high-throughput DNA polymerase assay (molecular beacon), primary screen and dose-response
Format: biochemical
Method in brief: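 Single-point screening used 10 µM compound with 20 nM polymerase, 20 nM hairpin substrate and 6 µM dNTPs for 90 min at 25 °C. Confirmatory titrations (2.5–80 µM) followed fluorescence at three times, and IC50 was derived from a fit including a cooperativity term n.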

Chain of P. falciparum apicoplast DNA polymerase (Pf-apPOL) (Q8ILY1 entry or part of it): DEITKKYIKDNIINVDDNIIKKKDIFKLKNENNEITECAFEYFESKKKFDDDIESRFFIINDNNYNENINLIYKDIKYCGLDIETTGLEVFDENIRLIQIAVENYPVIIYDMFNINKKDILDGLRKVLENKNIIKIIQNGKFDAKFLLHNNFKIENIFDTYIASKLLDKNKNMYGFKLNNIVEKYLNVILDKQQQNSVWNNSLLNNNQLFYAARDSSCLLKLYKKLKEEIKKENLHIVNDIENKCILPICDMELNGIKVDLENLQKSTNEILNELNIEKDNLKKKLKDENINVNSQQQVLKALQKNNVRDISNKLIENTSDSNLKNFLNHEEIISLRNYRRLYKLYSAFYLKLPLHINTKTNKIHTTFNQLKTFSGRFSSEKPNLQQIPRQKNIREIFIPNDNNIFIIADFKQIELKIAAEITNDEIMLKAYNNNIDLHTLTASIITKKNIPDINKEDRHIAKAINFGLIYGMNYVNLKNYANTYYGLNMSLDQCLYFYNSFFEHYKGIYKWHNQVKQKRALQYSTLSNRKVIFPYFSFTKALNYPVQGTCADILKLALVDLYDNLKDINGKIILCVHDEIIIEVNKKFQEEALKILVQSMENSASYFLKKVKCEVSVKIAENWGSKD

CN1CC(=Cc2ccco2)C(=O)C(=Cc2ccco2)C1 [Molecule 65, CN1CC(=Cc2ccco2)C(=O)C(=Cc2ccco2)C1]
DNA Pol ('DNA Pol'; screening value, unit not given; 90 min, 10 µM): 69
% inhibition Apo pol 10' (DRC-1; 10'; concentration 2.5): 22.1284%
% inhibition Apo pol 10' (DRC-1; 10'; concentration 5): 42.6789%
% inhibition Apo pol 10' (DRC-1; 10'; concentration 10): 54.6654%
% inhibition Apo pol 10' (DRC-1; 10'; concentration 20): 60.4298%
% inhibition Apo pol 10' (DRC-1; 10'; concentration 40): 67.6613%
% inhibition Apo pol 10' (DRC-1; 10'; concentration 80): 69.4432%
% inhibition Apol 90' (DRC-1; 90'; concentration 2.5): 10.4669%
% inhibition Apol 90' (DRC-1; 90'; concentration 5): 22.0675%
% inhibition Apol 90' (DRC-1; 90'; concentration 10): 32.2145%
% inhibition Apol 90' (DRC-1; 90'; concentration 20): 39.744%
% inhibition Apol 90' (DRC-1; 90'; concentration 40): 50.5992%
% inhibition Apol 90' (DRC-1; 90'; concentration 80): 58.0625%
% inhibition apPOL 180' (DRC-1; 180'; concentration 2.5): 4.595%
% inhibition apPOL 180' (DRC-1; 180'; concentration 5): 8.893%
% inhibition apPOL 180' (DRC-1; 180'; concentration 10): 17.702%
% inhibition apPOL 180' (DRC-1; 180'; concentration 20): 24.3352%
% inhibition apPOL 180' (DRC-1; 180'; concentration 40): 38.0441%
% inhibition apPOL 180' (DRC-1; 180'; concentration 80): 50.1748%
% inhibition Apo pol 5' (DRC-2, 5', concentration 2.5): 27%
% inhibition Apo pol 5' (DRC-2, 5', concentration 5): 34%
% inhibition Apo pol 5' (DRC-2, 5', concentration 10): 42%
% inhibition Apo pol 5' (DRC-2, 5', concentration 20): 45%
% inhibition Apo pol 5' (DRC-2, 5', concentration 40): 49%
% inhibition Apo pol 5' (DRC-2, 5', concentration 80): 47%
% inhibition Apol 40' (DRC-2, 40', concentration 2.5): 21%
% inhibition Apol 40' (DRC-2, 40', concentration 5): 27%
% inhibition Apol 40' (DRC-2, 40', concentration 10): 37%
% inhibition Apol 40' (DRC-2, 40', concentration 20): 43%
% inhibition Apol 40' (DRC-2, 40', concentration 40): 52%
% inhibition Apol 40' (DRC-2, 40', concentration 80): 55%
% inhibition ApPOL 90' (DRC-2, 90', concentration 2.5): 17%
% inhibition ApPOL 90' (DRC-2, 90', concentration 5): 21%
% inhibition ApPOL 90' (DRC-2, 90', concentration 10): 32%
% inhibition ApPOL 90' (DRC-2, 90', concentration 20): 38%
% inhibition ApPOL 90' (DRC-2, 90', concentration 40): 50%
% inhibition ApPOL 90' (DRC-2, 90', concentration 80): 56%
% inhibition apPOL 180' (DRC-2, 180', concentration 2.5): 8%
% inhibition apPOL 180' (DRC-2, 180', concentration 5): 8%
% inhibition apPOL 180' (DRC-2, 180', concentration 10): 20%
% inhibition apPOL 180' (DRC-2, 180', concentration 20): 28%
% inhibition apPOL 180' (DRC-2, 180', concentration 40): 42%
% inhibition apPOL 180' (DRC-2, 180', concentration 80): 54%
% inhibition Apo pol 5' (conc 2.5 (unit not given); 5'; DRC-2): 27%
% inhibition Apol 40' (conc 2.5 (unit not given); 40'; DRC-2): 21%
% inhibition apPOL 180' (conc 2.5 (unit not given); 180'; DRC-2): 8%
% inhibition Apol 40' (conc 5 (unit not given); 40'; DRC-2): 27%
% inhibition ApPOL 90' (conc 5 (unit not given); 90'; DRC-2): 21%
% inhibition apPOL 180' (conc 5 (unit not given); 180'; DRC-2): 8%
% inhibition Apo pol 5' (conc 10 (unit not given); 5'; DRC-2): 42%
% inhibition apPOL 180' (conc 40 (unit not given); 180'; DRC-2): 42%
DNA Pol (primary screen hit value, DNA Pol (186 hits); 90 min, 10 µM): 69

O=C(Cn1ccc2c(=O)[nH]ccc21)Nc1cccc(Cl)c1 [Molecule 23, O=C(Cn1ccc2c1cc[nH]c2=O)Nc1cccc(c1)Cl]
% inhibition Apo pol 10' (DRC-1; 10'; concentration 2.5): 1.228%
% inhibition Apo pol 10' (DRC-1; 10'; concentration 5): 14.8384%
% inhibition Apo pol 10' (DRC-1; 10'; concentration 10): 62.4441%
% inhibition Apo pol 10' (DRC-1; 10'; concentration 20): 81.0439%
% inhibition Apo pol 10' (DRC-1; 10'; concentration 40): 80.7703%
% inhibition Apo pol 10' (DRC-1; 10'; concentration 80): 68.5193%
% inhibition Apol 90' (DRC-1; 90'; concentration 2.5): -3.118%
% inhibition Apol 90' (DRC-1; 90'; concentration 5): 4.6922%
% inhibition Apol 90' (DRC-1; 90'; concentration 10): 48.8063%
% inhibition Apol 90' (DRC-1; 90'; concentration 20): 74.6886%
% inhibition Apol 90' (DRC-1; 90'; concentration 40): 82.985%
% inhibition Apol 90' (DRC-1; 90'; concentration 80): 79.3379%
% inhibition apPOL 180' (DRC-1; 180'; concentration 2.5): -7.139%
% inhibition apPOL 180' (DRC-1; 180'; concentration 5): -3.837%
% inhibition apPOL 180' (DRC-1; 180'; concentration 10): 31.8886%
% inhibition apPOL 180' (DRC-1; 180'; concentration 20): 62.9592%
% inhibition apPOL 180' (DRC-1; 180'; concentration 40): 80.4785%
% inhibition apPOL 180' (DRC-1; 180'; concentration 80): 82.7611%
% inhibition Apol 40' (DRC-2, 40', concentration 10 (unit not given)): 63%
% inhibition Apol 40' (DRC-2, 40', concentration 20 (unit not given)): 65%
% inhibition ApPOL 90' (DRC-2, 90', concentration 10 (unit not given)): 63%
% inhibition ApPOL 90' (DRC-2, 90', concentration 80 (unit not given)): 57%
% inhibition apPOL 180' (DRC-2, 180', concentration 10 (unit not given)): 57%
% inhibition apPOL 180' (DRC-2, 180', concentration 80 (unit not given)): 65%
% inhibition Apo pol 5' (DRC-2; 5'; concentration 2.5): 7%
% inhibition Apo pol 5' (DRC-2; 5'; concentration 5): 28%
% inhibition Apo pol 5' (DRC-2; 5'; concentration 10): 46%
% inhibition Apo pol 5' (DRC-2; 5'; concentration 20): 43%
% inhibition Apo pol 5' (DRC-2; 5'; concentration 40): 34%
% inhibition Apo pol 5' (DRC-2; 5'; concentration 80): 19%
% inhibition Apol 40' (DRC-2; 40'; concentration 2.5): 6%
% inhibition Apol 40' (DRC-2; 40'; concentration 5): 35%
% inhibition Apol 40' (DRC-2; 40'; concentration 10): 63%
% inhibition Apol 40' (DRC-2; 40'; concentration 20): 65%
% inhibition Apol 40' (DRC-2; 40'; concentration 40): 60%
% inhibition Apol 40' (DRC-2; 40'; concentration 80): 49%
% inhibition ApPOL 90' (DRC-2; 90'; concentration 2.5): 3%
% inhibition ApPOL 90' (DRC-2; 90'; concentration 5): 31%
% inhibition ApPOL 90' (DRC-2; 90'; concentration 10): 63%
% inhibition ApPOL 90' (DRC-2; 90'; concentration 20): 69%
% inhibition ApPOL 90' (DRC-2; 90'; concentration 40): 67%
% inhibition ApPOL 90' (DRC-2; 90'; concentration 80): 57%
% inhibition apPOL 180' (DRC-2; 180'; concentration 2.5): -5%
% inhibition apPOL 180' (DRC-2; 180'; concentration 5): 18%
% inhibition apPOL 180' (DRC-2; 180'; concentration 10): 57%
% inhibition apPOL 180' (DRC-2; 180'; concentration 20): 71%
% inhibition apPOL 180' (DRC-2; 180'; concentration 40): 72%
% inhibition apPOL 180' (DRC-2; 180'; concentration 80): 65%
DNA Pol (primary screen value of the 186 hits; unit not given; 90 min, 10 µM): 79
DNA Pol (primary screen value, head "DNA Pol", unit not given; 90 min, 10 µM): 79

From PMC9090415, “Discovery of small molecule inhibitors of Plasmodium falciparum apicoplast DNA polymerase” (Journal of Enzyme Inhibition and Medicinal Chemistry, 2022)
